Experimental data: patent publication EP4806894A1, “TNAP INHIBITORY COMPOUND AND USE THEREOF” (Rednvia Co., Ltd., priority 2023, dated 2025)

Experiments:
saos-2 cells = assay: Anticalcification efficacy in saos-2 cells (osteogenic medium, Alizarin Red staining); format: cell-based; conditions: test compound 1 µM, 7 days osteogenic medium, Alizarin Red absorbance 540 nm
Method in brief: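 Saos-2 cells at 80–90% confluence induced for 7 days in osteogenic medium (DMEM, 100 nM dexamethasone, 10 mM β-glycerophosphate, 0.05 mM ascorbic acid), compound (0.5, 1, 5, 10 […]) added with each medium change. Alizarin Red staining eluted with cetylpyridinium chloride, A540 read; inhibition taken against OM-only absorbance.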

C57BL/6 mouse [1] = assay: Vitamin D-induced calcification mouse animal model (aortic valve histopathology); format: in vivo; conditions: for blackened area (von Kossa staining, increased calcification): Figure 2, versus high-dose vitamin D3-induced calcification group (B); for Number of inflammatory cells (cells/mm^2): aortic valve area; for Number of inflammatory cells (cells/mm^2) / Mean thickness (µm): HE staining; for Number of inflammatory cells (cells/mm^2) / Mean thickness (µm) / Calcified area (%/mm^2): vitamin D3 6.5x10^5 IU/Kg s.c. for 3 days, compound orally once a day for 8 days, mouse; for Mean thickness (µm) / Calcified area (%/mm^2): aortic valve; for Calcified area (%/mm^2): von Kossa staining
Description: (§1) Individual heart samples were cut crosswise, one section at a time, around the origin/root region of the ascending aorta. Histological sections were then prepared from all the samples received. All cross-sectioned cardiac-aortic valve sections were refixed in 10% neutral buffered formalin for 24 hours to prepare histological samples. After the samples were embedded in paraffin, two serial sections of 3 to 4 µm thickness were prepared on each paraffin block and stained with hematoxylin & eosin (HE) for general histopathology or von Kossa (VK) for calcium deposition, respectively. To observe more detailed changes, a computer-assisted image analysis program and a histological camera system were used to calculate the mean aortic valve thickness (µm) and the number of inflammatory cells infiltrating the aortic valve area (cells/mm^2) in HE staining, and the mean calcified aortic valve area (%/mm^2) in VK staining in this histopathological analysis.
Experimental animals were prepared similarly to Experimental Example 3. Excluding the normal group, four groups were administered with high-dose (6.5x10^5 IU/Kg) vitamin D3 subcutaneously once a day for a total of 3 days to induce calcification. The compounds of Examples 1 and 6 were administered orally together from the first day of vitamin D3 administration, and then administered once a day for 5 more days without vitamin D3 administration, for a total of 8 days.
Samples were obtained and analyzed in the same manner as in Experimental Example 3.

TNAP = biological target: T1, TNAP (Homo sapiens, UniProt P05186); assay: TNAP inhibitory activity, colorimetric assay (alkaline phosphatase assay kit ab83369, pNPP substrate); format: biochemical; conditions: TNAP enzyme, 2 hours at room temperature, absorbance 405 nm
T1 sequence (P05186 18-502 limits assumed): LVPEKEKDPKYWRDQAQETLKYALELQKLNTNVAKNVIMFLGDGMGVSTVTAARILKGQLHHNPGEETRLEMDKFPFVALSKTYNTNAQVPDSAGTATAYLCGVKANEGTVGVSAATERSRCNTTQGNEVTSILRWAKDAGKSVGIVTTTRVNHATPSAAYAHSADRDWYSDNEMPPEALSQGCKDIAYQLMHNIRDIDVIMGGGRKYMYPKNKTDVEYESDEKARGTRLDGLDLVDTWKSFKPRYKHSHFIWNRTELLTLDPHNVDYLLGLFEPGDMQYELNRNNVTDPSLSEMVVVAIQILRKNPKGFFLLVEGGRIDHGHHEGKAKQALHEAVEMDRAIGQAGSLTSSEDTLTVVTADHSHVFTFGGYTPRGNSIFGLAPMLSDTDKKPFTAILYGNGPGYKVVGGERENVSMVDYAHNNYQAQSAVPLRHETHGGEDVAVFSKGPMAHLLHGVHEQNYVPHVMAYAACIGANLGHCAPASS

C57BL/6 mouse [2] = assay: Warfarin-induced calcification mouse animal model (aortic valve histopathology); format: in vivo; conditions: for blackened area (von Kossa staining, increased calcification): Figure 1, versus warfarin and vitamin K1-induced calcification group (B); for Number of inflammatory cells (cells/mm^2): aortic valve area; for Number of inflammatory cells (cells/mm^2) / Mean thickness (µm): HE staining; for Number of inflammatory cells (cells/mm^2) / Mean thickness (µm) / Calcified area (%/mm^2): warfarin and vitamin K1 for 4 weeks, C57BL/6 mouse; for Mean thickness (µm) / Calcified area (%/mm^2): aortic valve; for Calcified area (%/mm^2): von Kossa staining
Description: • 1. Animal: C57BL/6 mouse (OrientBio, Sungnam-city, Korea) • Gender: male • Age on arrival: C57BL/6 (6 weeks) • Raising: Animals were raised in filter cap polycarbonate cages, 5 animals each, in a temperature (25°C) and humidity (45-55%) controlled sterile clean room. The light:dark cycle was 12 hours:12 hours, and sterilized food and water were provided with free access. • Guidelines: All animals were treated in accordance with the Daegu Haany University Institutional Animal Care and Use Committee (Gyeongsan, Korea). • 2. General experimental methods: In vivo drug administration
After acclimating the mice for one week, they were divided into each group and tested.
After acclimation for one week, the groups were randomized.
The mice were divided into four groups: a group that received no treatment (A), a group that was treated with warfarin and vitamin K1 to induce calcification (B), a group that was administered orally with 0.5% CMC (carboxymethyl Cellulose) (C), and a group that was administered with the test compound. The compounds of Example 1 (K) and Example 6 (L) were selected as the test compound.
All groups, except the untreated control group (Normal), were administered both warfarin and vitamin K1 at 8:00 AM and warfarin alone at 8:00 PM for 4 weeks.
Heart tissue samples were obtained from each group and used for analysis.
as §1

Compound	calcification inhibition (saos-2 cells)	blackened area (von Kossa staining, increased calcification) (C57BL/6 mouse [1])	Number of inflammatory cells (cells/mm^2) (C57BL/6 mouse [1])	Mean thickness (µm) (C57BL/6 mouse [1])	Calcified area (%/mm^2) (C57BL/6 mouse [1])	IC50 (TNAP) [nM]	blackened area (von Kossa staining, increased calcification) (C57BL/6 mouse [2])	Number of inflammatory cells (cells/mm^2) (C57BL/6 mouse [2])	Mean thickness (µm) (C57BL/6 mouse [2])	Calcified area (%/mm^2) (C57BL/6 mouse [2])	inhibition at 1 µM (saos-2 cells; Homo sapiens, 168 h, read-out: calcification inhibition) [%]
5-chloro-2-methoxy-N-(5-oxo-6,7-dihydro-5H-pyrrolo[3,4-b]pyridine-3-yl)benzenesulfonamide [Example 1]	A (inhibition of 50% or more was expressed as "A")	significantly reduced	110.89±21.64	64.26±12.34	7.95±1.16	10 to 100	significantly reduced	144.40±43.12	112.42±10.81	2.45±0.64	–
COc1ccc(Cl)cc1S(=O)(=O)Nc1cnc2c(c1)C(=O)NCC2 [Example 6, 5-chloro-2-methoxy-N-(5-oxo-5,6,7,8-tetrahydro-1,6-naphthyridine-3-yl)benzenesulfonamide]	–	significantly reduced	58.89±17.32	51.76±10.39	2.44±0.92	≤ 10	significantly reduced	80.40±14.90	91.69±15.70	1.16±0.30	≥ 50
